One assay has as its system IL-4. Put plainly: Functional Th2-blocking activity: IL-4 expression in primary human Th2 cells (intracellular flow cytometry). As to conditions: primary human CD4+ Th2 cells; for % Normalized Reduction of Cytokine Expression From Baseline in CD4+ T Cells IL-4: normalized against vehicle control (water), 3 days co-culture, PMA/ionomycin 6 hours; for Expression of Cytokine following Stimulation (% X Positive among CD4+ T cells) IL-4: 3 days co-culture with compound, PMA/ionomycin stimulation 6 hours. Type of assay: cell-based. The source says:
(§1) To produce T helper 2 (Th2) cells, peripheral blood mononuclear cells (PBMCs) were harvested from healthy donor leukopaks using Ficoll gradients. Naive CD4+ T cells were further isolated, then activated using TransAct or Dynabeads (depending on the donor). CD4+ T cells were activated for two days in the presence of low dose IL-2 (30 IU/mL) in X-VIVO-15 media containing 5% human AB serum (activation cycle). On the second day, the media was exchanged and supplemented with interleukin 4 (IL-4) (20 ng/mL), anti-IFN-gamma antibody (1 μg/mL), and interleukin 2 (IL-2) (rest cycle). The cells were cultured for an additional five days then evaluated for Prostaglandin D2 receptor 2 (DP2 or CRTH2) expression and IL-4 and interleukin 13 (IL-13) expression following phorbol myristate acetate (PMA)/ionomycin stimulation. If the expression of CRTH2 was >50%, the cells were frozen and used in Th2 IL-4/IL-13 bioactivity assays. If the expression of CRTH2 <50%, then the cells were restimulated using TransAct (or Dynabeads) and maintained on similar cycles of activation (2 days) and rest (5 days), until the expression of CRTH2 exceeded 50%. Typically, no more than 4 cycles are needed before the Th2 cells may be harvested and frozen.
(§2) For testing the ability of a compound or salt of the present disclosure to reduce the expression of IL-4 and IL-13 was tested in primary human Th2 cells, the abovementioned cells were thawed, then cultured for one day in IL-2 containing media. The Th2 cells were treated with compounds added at varying concentrations for three days, after which, the cells were washed, and stimulated with PMA/ionomycin for 6 hrs prior to readabout via intracellular flow cytometry.
(§3) The ability of a compound or salt of the present disclosure to reduce the expression of IL-4 and IL-13 was tested in primary human Th2 cells. Naive, primary human CD4+ T cells were isolated from healthy donors and differentiated into Th2 cells using a combination of IL-4 cytokine and anti-IFN-gamma antibody, based on a modified protocol from Scott et al (Activation of Th2 cells downregulates CRTh2 through an NFAT1 mediated mechanism. PLoS One. 2018 Jul. 3; 13(7):e0199156). Th2 cells were CRTH2+ and expressed IL-4 and IL-13 following PMA/ionomycin stimulation. Prior to PMA/ionomycin stimulation, Th2 cells were co-cultured with a compound or salt of the present disclosure for 3 days and then stimulated for 6 hours. Intracellular flow cytometry was performed to investigate the expression of IL-4 and IL-13 among stimulated CD4+ Th2 cells. The compound or salt was evaluated across a 2-log concentration range. Th2 cells were cultured in X-VIVO-15 media with human AB serum and supplemented with low dose IL-2 (30 IU/mL). The antibody panel that was used is listed below. All antibodies were obtained from Biolegend.
(§4) Description of Calculation for: (1) Expression of Cytokine following Stimulation (% X Positive among CD4+ T cells), and (2) % Normalized Reduction of Cytokine Expression From Baseline in CD4+ T Cells
(§5) The expression of IL-4 and IL-13 was measured based on positive gated fractions among CD4+ Th2 cells. The number is expressed as a positive percentage, determined based on the fluorescence-minus-one (FMO) control. The max percent is 100%. The normalized reduction value uses the vehicle control (water) to normalize against using the following percent change formula. (Cmpd: compound)

The test system of another assay is IL-13. Put plainly: Functional Th2-blocking activity: IL-13 expression in primary human Th2 cells (intracellular flow cytometry). It is filed as cell-based. As to conditions: for Expression of Cytokine following Stimulation (% X Positive among CD4+ T cells) IL-13: 3 days co-culture with compound, PMA/ionomycin stimulation 6 hours; for % Normalized Reduction of Cytokine Expression From Baseline in CD4+ T Cells IL-13: normalized against vehicle control (water), 3 days co-culture, PMA/ionomycin 6 hours.
Source text: as §1, §2, §3, §4, §5
(In general: Flow cytometry measures light scatter and fluorescence of single cells or particles in a stream.)

As to `O=C1Cc2cc(-c3csc(Cc4ccc(F)cc4)n3)cc3c2N1CCC3` [VI-14, 8-(2-(4-fluorobenzyl)thiazol-4-yl)-5,6-dihydro-4H-pyrrolo[3,2,1-ij]quinolin-2(1H)-one], in the assay with IL-4, the “% Normalized Reduction of Cytokine Expression From Baseline in CD4+ T Cells IL-4” value (from here on “% Normalized Reduction … in CD4+ T Cells IL-4”) is listed as “C (C represents 20% to less than 25%)” and the “Expression of Cytokine following Stimulation (% X Positive among CD4+ T cells) IL-4” value is given as “B (B represents 30% to less than 35%)”. Moreover, in the assay on IL-13, the “Expression of Cytokine following Stimulation (% X Positive among CD4+ T cells) IL-13” value is given as “B (B represents 10% to less than 14%)” and the “% Normalized Reduction of Cytokine Expression From Baseline in CD4+ T Cells IL-13” value (“% Normalized Reduction … in CD4+ T Cells IL-13” below) is “D (D represents 50% or greater)”.

For the compound `CN1c2c(nc(N)[nH]c2=O)NCC1CNc1ccc(C(=O)NC(CCC(=O)O)C(=O)O)cc1.[Ca+2]` (stereo not drawn) [VI-4, Levomefolate calcium, reference compound], in the assay on IL-4, the “% Normalized Reduction … in CD4+ T Cells IL-4” value is “B (B represents 15% to less than 20%)” and the “Expression of Cytokine following Stimulation (% X Positive among CD4+ T cells) IL-4” value is recorded as “B (B represents 30% to less than 35%)”. In addition, in the assay on IL-13, the “Expression of Cytokine following Stimulation (% X Positive among CD4+ T cells) IL-13” value is listed as “C (C represents 14% to less than 18%)” and the “% Normalized Reduction … in CD4+ T Cells IL-13” value was “B (B represents 30% to less than 40%)”.

Regarding `Cc1cc(NC(=O)CC23CC4CC(CC(C4)C2)C3)cc(-c2nc3ncccc3o2)c1O` [III-4, 2-(1-adamantyl)-N-(4-hydroxy-3-methy1-5-[1,3]oxazolo[4,5-b]pyridin-2-ylphenyl)acetamide], in the assay on IL-4, the “% Normalized Reduction … in CD4+ T Cells IL-4” value is given as “C (C represents 20% to less than 25%)” and the “Expression of Cytokine following Stimulation (% X Positive among CD4+ T cells) IL-4” value is listed as “B (B represents 30% to less than 35%)”. In addition, in the assay on IL-13, the “Expression of Cytokine following Stimulation (% X Positive among CD4+ T cells) IL-13” value was “C (C represents 14% to less than 18%)” and the “% Normalized Reduction … in CD4+ T Cells IL-13” value is reported as “B (B represents 30% to less than 40%)”.

As for `O=C(c1ccc(F)cc1F)C1(O)CCN(Cc2ccc3cnccc3c2)CC1` [VI-9, 4-(2,4-difluorobenzoyl)-1-[(isoquinolin-6-yl)methyl]piperidin-4-ol], in the assay with IL-4, the “% Normalized Reduction … in CD4+ T Cells IL-4” value was “D (D represents 25% or greater)” and the “Expression of Cytokine following Stimulation (% X Positive among CD4+ T cells) IL-4” value was “A (A represents 0% to less than 30%)”. Besides, in the assay with IL-13, the “Expression of Cytokine following Stimulation (% X Positive among CD4+ T cells) IL-13” value is reported as “C (C represents 14% to less than 18%)” and the “% Normalized Reduction … in CD4+ T Cells IL-13” value is given as “C (C represents 40% to less than 50%)”.

Turning to `O=C(C1CCc2cn[nH]c2C1)N1C[C@H]2CCC[C@@]2(c2nc(-c3ccccc3)no2)C1` (stereo in doubt) [IV-1, 6-[(3aS,6aS)-3a-(3-phenyl-1,2,4-oxadiazol-5-yl)-octahydrocyclopenta[c]pyrrole-2-carbonyl]-4,5,6,7-tetrahydro-1H-indazole], in the assay with IL-4, the “% Normalized Reduction … in CD4+ T Cells IL-4” value was “C (C represents 20% to less than 25%)” and the “Expression of Cytokine following Stimulation (% X Positive among CD4+ T cells) IL-4” value is on record as “B (B represents 30% to less than 35%)”. In the assay with IL-13, the “Expression of Cytokine following Stimulation (% X Positive among CD4+ T cells) IL-13” value is “C (C represents 14% to less than 18%)” and the “% Normalized Reduction … in CD4+ T Cells IL-13” value is recorded as “C (C represents 40% to less than 50%)”.

On to `O=c1c2ccccc2c(-c2nc(-c3ccccc3Cl)no2)nn1-c1ccccc1` [IV-3, 4-[3-(2-chlorophenyl)-1,2,4-oxadiazol-5-yl]-2-phenyl-1,2-dihydrophthalazin-1-one], for which, in the assay on IL-4, the “% Normalized Reduction … in CD4+ T Cells IL-4” value was “C (C represents 20% to less than 25%)” and the “Expression of Cytokine following Stimulation (% X Positive among CD4+ T cells) IL-4” value is reported as “B (B represents 30% to less than 35%)”. Besides, in the assay on IL-13, the “Expression of Cytokine following Stimulation (% X Positive among CD4+ T cells) IL-13” value was “C (C represents 14% to less than 18%)” and the “% Normalized Reduction … in CD4+ T Cells IL-13” value is “B (B represents 30% to less than 40%)”.

Take `Cn1nc(C(=O)NC(CCC(=O)O)C(=O)O)c2ccccc2c1=O` (stereo not drawn) [VI-6, 2-[(3-methyl-4-oxo-3,4-dihydrophthalazin-1-yl)formamido]pentanedioic acid]: in the assay on IL-4, the “% Normalized Reduction … in CD4+ T Cells IL-4” value was “A (A represents 0% to less than 15%)” and the “Expression of Cytokine following Stimulation (% X Positive among CD4+ T cells) IL-4” value is on record as “C (C represents 35% to less than 40%)”. In the assay with IL-13, the “Expression of Cytokine following Stimulation (% X Positive among CD4+ T cells) IL-13” value is “C (C represents 14% to less than 18%)” and the “% Normalized Reduction … in CD4+ T Cells IL-13” value is recorded as “B (B represents 30% to less than 40%)”.

Turning to `Cc1ccc(CCNC(=O)c2ccc3c(=O)n(-c4ccc(C)cc4)c(=O)[nH]c3c2)cc1` [VI-10, 3-(4-methylpheny1)-N-[2-(4-methylphenyl)ethyl]-2,4-dioxo-1,2,3,4-tetrahydroquinazoline-7-carboxamide], in the assay on IL-4, the “% Normalized Reduction … in CD4+ T Cells IL-4” value is “C (C represents 20% to less than 25%)” and the “Expression of Cytokine following Stimulation (% X Positive among CD4+ T cells) IL-4” value was “B (B represents 30% to less than 35%)”. In addition, in the assay on IL-13, the “Expression of Cytokine following Stimulation (% X Positive among CD4+ T cells) IL-13” value is reported as “C (C represents 14% to less than 18%)” and the “% Normalized Reduction … in CD4+ T Cells IL-13” value is recorded as “B (B represents 30% to less than 40%)”.

Take `O=C(Nc1cccc(-c2ccc3nnc(-c4ccncc4)n3n2)c1)c1ccc(Cl)nc1` [III-2, 6-chloro-N-{3-[3-(pyridin-4-yl)-[1,2,4]triazolo[4,3-b]pyridazin-6-yl]phenyl}pyridine-3-carboxamide]: in the assay with IL-4, the “% Normalized Reduction … in CD4+ T Cells IL-4” value is listed as “C (C represents 20% to less than 25%)” and the “Expression of Cytokine following Stimulation (% X Positive among CD4+ T cells) IL-4” value is “B (B represents 30% to less than 35%)”. In the assay on IL-13, the “Expression of Cytokine following Stimulation (% X Positive among CD4+ T cells) IL-13” value is listed as “C (C represents 14% to less than 18%)” and the “% Normalized Reduction … in CD4+ T Cells IL-13” value is recorded as “C (C represents 40% to less than 50%)”.

With `CCNC(=O)COc1cccc(NC(=O)c2sccc2-n2c(C)ccc2C)c1` [III-3, 3-(2,5-dimethyl-1H-pyrrol-1-yl)-N-{3-[(ethylcarbamoyl)methoxy]phenyl} thiophene-2-carboxamide], in the assay with IL-4, the “% Normalized Reduction … in CD4+ T Cells IL-4” value was “B (B represents 15% to less than 20%)” and the “Expression of Cytokine following Stimulation (% X Positive among CD4+ T cells) IL-4” value is on record as “B (B represents 30% to less than 35%)”. In the assay with IL-13, the “Expression of Cytokine following Stimulation (% X Positive among CD4+ T cells) IL-13” value is recorded as “B (B represents 10% to less than 14%)” and the “% Normalized Reduction … in CD4+ T Cells IL-13” value is reported as “D (D represents 50% or greater)”.

Turning to `O=C(NC1CCN(C(=O)c2cn(-c3ccc(F)cc3)nn2)CC1)c1cc2ccccc2[nH]1` [VI-1, N-{1-[1-(4-fluorophenyl)-1H-1,2,3-triazole-4-carbonyl]piperidin-4-yl}-1H-indole-2-carboxamide], in the assay on IL-4, the “% Normalized Reduction … in CD4+ T Cells IL-4” value is reported as “D (D represents 25% or greater)” and the “Expression of Cytokine following Stimulation (% X Positive among CD4+ T cells) IL-4” value was “B (B represents 30% to less than 35%)”. In addition, in the assay with IL-13, the “Expression of Cytokine following Stimulation (% X Positive among CD4+ T cells) IL-13” value is on record as “C (C represents 14% to less than 18%)” and the “% Normalized Reduction … in CD4+ T Cells IL-13” value is on record as “B (B represents 30% to less than 40%)”.

With `O=C(Oc1ccc(OC(=O)c2ccc3c(c2)C(=O)OC3=O)cc1)c1ccc2c(c1)C(=O)OC2=O` [VI-13, 4-(1,3-dioxo-1,3-dihydro-2-benzofuran-5-carbonyloxy)phenyl 1,3-dioxo-1,3-dihydro-2-benzofuran-5-carboxylate], in the assay with IL-4, the “% Normalized Reduction … in CD4+ T Cells IL-4” value is “C (C represents 20% to less than 25%)” and the “Expression of Cytokine following Stimulation (% X Positive among CD4+ T cells) IL-4” value is “B (B represents 30% to less than 35%)”. Further, in the assay on IL-13, the “Expression of Cytokine following Stimulation (% X Positive among CD4+ T cells) IL-13” value was “C (C represents 14% to less than 18%)” and the “% Normalized Reduction … in CD4+ T Cells IL-13” value is given as “B (B represents 30% to less than 40%)”.

Values taken from patent publication US20260083701A1, “COMPOSITIONS, FORMULATIONS, AND METHODS FOR TREATMENT OF INFLAMMATORY CONDITIONS” (Oddity Labs, LLC, priority 2023, published 2026).
